One may read the Kd as a measure of binding affinity in units of concentration. Read a high Kd as lower affinity.

The text below walks through data of PMC3634016, “The Calmodulin-Binding, Short Linear Motif, NSCaTE Is Conserved in L-Type Channel Ancestors of Vertebrate Cav1.2 and Cav1.3 Channels” (PLoS ONE, 2013).

In this assay the target is T1, Ca^2+-CaM (wild type rat calmodulin) (Rattus norvegicus, UniProt P0DP29).
T1 construct: made in house
The experiment in a line: Isothermal titration calorimetry, peptide into Ca2+-CaM. The assay is classed as binding. Conditions: peptide titrated into Ca2+-CaM alone; 25 mM Tris-Cl pH 7.5, 75 mM NaCl, 0.5 mM CaCl2; 25°C; one-set-of-sites model; SEM printed separately in figure. On the technique in general: In ITC the heat of successive injections is recorded.

Procedure: All peptides were resuspended in mili-Q deionized water to 1 mM stocks and stored at −80°C in small aliquots.
All ITC recordings were performed on a Microcal ITC200 from Microcal (Northampton, MA) at 25°C. In all experiments the buffer used was 25 mM Tris-Cl pH 7.5, 75 mM NaCl and 0.5 mM CaCl2 and was identical between cell and syringe. […] Data analysis was performed using Origin ITC200 Origin70 module with pre-loaded fitting equations for one- and two-sites models.

The compound `CC[C@H](C)[C@H](NC(=O)[C@H](C)NC(=O)[C@H](C)NC(=O)[C@H](CCC(N)=O)NC(=O)[C@H](Cc1c[nH]c2ccccc12)NC(=O)[C@@H](N)CO)C(=O)N[C@@H](CC(=O)O)C(=O)N[C@@H](C)C(=O)N[C@@H](C)C(=O)N[C@@H](CCCNC(=N)N)C(=O)N[C@@H](CCC(N)=O)C(=O)N[C@@H](C)C(=O)N[C@@H](CCCCN)C(=O)N[C@@H](CC(C)C)C(=O)N[C@@H](CCSC)C(=O)NCC(=O)N[C@@H](CO)C(=O)O` [NSCaTECav1.2] returned a Kd of 830 nM.
